Experimental data reported in patent US20110230659A1, “CYCLOBUTYL PURINE DERIVATIVE, ANGIOGENESIS PROMOTING AGENT, LUMEN FORMATION PROMOTING AGENT, NEUROCYTE GROWTH PROMOTING AGENT, AND DRUG” (NATIONAL UNIVERSITY CORPORATION KAGAWA UNIVERSITY, priority 2008, published 2011).

Key:
[1] = system: Human umbilical vein endothelial cells (HUVEC); assay: Measurement of cell migration (CytoSelect 24-well Cell Migration Assay); type: cell-based
Protocol: Measurement of cell migration was carried out in the following manner using CytoSelect 24-well Cell Migration Assay (CBA-100, Cell Biolabs) kits. First, sample solutions were prepared by dissolving 2-Cl—C.OXT-A in physiological saline so as to achieve predetermined concentrations (0.1, 0.5, 1 mmol/l). Then, the sample solutions containing 2-Cl—C.OXT-A at the predetermined concentrations respectively were added to HuMedia-EB2 media (Kurabo) to which 2 v/v % inactivated fetal bovine serum (FBS) had been added so that their concentrations became 10 v/v %. Thus, cell migration media were prepared. The final concentrations of 2-Cl—C.OXT-A in the cell migration media were 10, 50, and 100 μmol/l.
Human umbilical vein endothelial cells (HUVEC) were suspended in a HuMedia-EB2 medium (Kurabo) to which 2 v/v % inactivated fetal bovine serum (FBS) had been added at a density of 0.5×10^6 cells/ml. Thus, a cell suspension was prepared. 300 μl of the cell suspension was added to an upper compartment (i.e., in an insert) of a polycarbonate membrane plate provided in the kit, and 500 μl of the cell migration medium was added to a lower compartment (i.e., in a well) of the plate. Then, the cells were cultured at 37° C. for 24 hours. After the completion of the culture, the membrane on the inner bottom face of the insert was wiped out with a cotton swab to remove the cells on the membrane. Then, cells having migrated to the rear face of the membrane (the membrane on the outer bottom face of the insert) were stained using a staining solution provided in the kit, and then photographed from below the insert. After the photographing, the dye was extracted with an extracting solution provided in the kit, and the absorbance at 560 nm was measured using a microplate reader. As a control, a HuMedia-EB2 medium (Kurabo) to which 2 v/v % inactivated fetal bovine serum (FBS) had been added was used instead of the cell migration medium to carry out the culture, and the cells were stained and the absorbance was measured in the same manner as in the above. Then, using the above equation (I), the relative absorbance in the culture using each of the cell migration media containing 2-Cl—C.OXT-A at the predetermined concentrations was calculated.

ERK = ERK activation (phosphorylation) immunoblot in HUVEC; type: cell-based, human; details: for relative value (−fold) of pERK: 100 μmol/l
Protocol: (§1) First, to a HuMedia-EB2 medium (Kurabo) to which 2 v/v % inactivated fetal bovine serum (FBS) had been added, 2-Cl—C.OXT-A was added so that its concentration became 100 μmol/l. Thus, a medium was prepared. Using the medium, human umbilical vein endothelial cells (HUVEC) were cultured for predetermined periods (0, 10, 20, 30, 45, and 60 minutes).
After the culture, cells were collected. The collected cells were lysed by adding a cell lysis buffer (SDS-lysis buffer) thereto, and heat-denatured at 95° C. for 5 minutes. The solubilized protein in an amount corresponding to 5 v/v % of the heat-denatured cell lysate was subjected to electrophoresis using 10% SDS-polyacrylamide gel, whereby the solubilized protein was transferred onto a nitrocellulose membrane (Amersham Biosciences). To 20 ml of TBS-T having the following composition, skim milk (Wako) was added so that its concentration became 5%, thus preparing a blocking solution. The resultant nitrocellulose membrane was immersed in the blocking solution and shaken at room temperature for 1 hour.
Primary antibodies shown below were diluted 1000-fold by adding them to 5% bovine serum albumin (Sigma)-containing TBS-T, thus preparing a primary antibody solution. The nitrocellulose membrane after being subjected to the blocking was immersed in the primary antibody solution, and shaken at room temperature for 1 hour. The resultant nitrocellulose membrane was immersed in the TBS-T and washed by being shaken for 10 minutes. This washing operation was carried out three times in total.
Secondary antibodies shown below were diluted 20000-fold by adding them to TBS-T, thus preparing a secondary antibody solution. The nitrocellulose membrane having undergone the reaction with the primary antibodies was immersed in the secondary antibody solution, and shaken at room temperature for 1 hour. The resultant nitrocellulose membrane was immersed in the TBS-T and washed by being shaken for 10 minutes. This washing operation was carried out three times in total.
(§2) The enzymes were visualized with SuperSignal (registered trademark) West Pico Chemiluminescent Substrate (Pierce), and detected by being exposed to RX—U X-ray film (FUJIFILM Corporation). From the detected bands, the respective phosphoenzymes and total enzymes were quantified using an NIH image software. Furthermore, the relative value (−fold) of each phosphoenzyme was calculated by substituting the measured value of the phosphoenzyme into the following equation (III).
Relative value(−fold)of phosphoenzyme=(B/D)/(A/C) (III)
In the present example, the effect of 2-Cl—C.OXT-A of Example 1 and C.OXT-G of Comparative Example 2 on the activation (phosphorylation) of ERK was examined. In the present example, the amount of each enzyme was measured and the relative value (−fold) of each phosphoenzyme was calculated in the same manner as in Example 3, except that: a medium to which 2-Cl—C.OXT-A had been added so as to achieve predetermined concentrations (0, 10 and 100 μmol/l) and a medium to which 100 μmol/l C.OXT-G had been added were used; the culture period after the addition was set to 20 minutes: as the primary antibodies, only an anti-phospho ERK polyclonal antibody (Catalog No. 9101, Cell Signaling Technology) and an anti-total ERK monoclonal antibody (Catalog No. 610408, BD Transduction Laboratory) were used; as the secondary antibody for ERK, a sheep HRP-labeled anti-mouse IgG antibody (Pierce) was used; and as a secondary antibody of pERK, a sheep HRP-labeled anti-rabbit IgG antibody (Pierce) was used.
In the present example, the effect of PD98059 as an MEK inhibitor on the ERK activation (phosphorylation) by 2-Cl—C.OXT-A used in Example 1 was examined. […]

JNK = JNK activation (phosphorylation) immunoblot in HUVEC; type: cell-based, human; details: 100 μmol/l; 0 to 60 minutes
Protocol: as §1
After the culture, cells were collected. The collected cells were lysed by adding a cell lysis buffer (SDS-lysis buffer) thereto, and heat-denatured at 95° C. for 5 minutes. The solubilized protein in an amount corresponding to 5 v/v % of the heat-denatured cell lysate was subjected to electrophoresis using 10% SDS-polyacrylamide gel, whereby the solubilized protein was transferred onto a nitrocellulose membrane (Amersham Biosciences). […]
as §2

[2] = system: cornea of Japanese white rabbit; assay: Angiogenesis test, rabbit cornea assay; type: in vivo; details: 16 mmol/l in 30 μl of physiological saline injected to cornea, observed after 7 days
Protocol: In the present example, the effect of 2-Cl—C.OXT-A of Example 1 on angiogenesis was examined by a rabbit cornea assay.
A sample was prepared by adding 2-Cl—C.OXT-A to 30 μl of physiological saline so that its concentration became 16 mmol/l. The sample was injected to a cornea of Japanese white rabbit (male, 2.8 kg) under sevoflurane anesthesia. The cornea was observed after a lapse of 7 days.

SMILES: Nc1nc(Cl)nc2c1ncn2C1CC(CO)C1CO (stereo not drawn) [2-Cl—C.OXT-A, 6-amino-2-chloro-9-[trans-trans-2,3-bis(hydroxymethyl)cyclobutyl]purine]
- stained area (cell migration photographs) ([1]; final concentration 10 μmol/l to 100 μmol/l, 24 hours, versus control): larger than that in the control
- relative absorbance (cell migration) ([1]; final concentration 50 μmol/l): 2.1
- cell migration promoting-activity compared with VEGF ([1]; final concentration 50 μmol/l, VEGF 10 ng/ml): higher than that in Comparative Example 7
- relative absorbance (cell migration) ([1]; final concentration 10 to 100 μmol/l, versus control): higher than that of the control
- migration promoting-activity compared with physiological saline ([1]; final concentrations 50 and 100 μmol/l, p<0.02): significantly higher than that in Comparative Example 8
- relative value (−fold) of pERK (ERK; Example 3, 20 minutes after the addition): about 11 fold
- pERK, concentration dependence (ERK; Example 4, 0, 10 and 100 μmol/l, 20 minutes): increased in a manner dependent on the concentration
- relative value (−fold) of pERK (ERK; Example 4, 20 minutes): about 10 fold
- pERK (ERK; Example 6, medium No. 2: 2-Cl—C.OXT-A 100 μmol/l, no PD98059): increased
- amount of pJNK (JNK): not changed
- angiogenesis in the cornea [2]: considerable angiogenesis
